Data as given in patent US11020409B2, “Broad antiviral therapy with membrane modifying oxysterols” (priority 2012, dated 2021).
Several values for one entry are separate records, joined by “and”; a condition that tells them apart may be missing. Identical values can stand only once. Like-named read-outs stand apart in the source and are kept apart here.

Columns and labels:
[1] = test system: HIV NL4-3 encoding Vpr-BlaM (NL4-3/BlaM); type: cell-based, human-immunodeficiency virus
[2] = test system: HIV-IIIB pseudovirus; type: cell-based, human-immunodeficiency virus
[3] = test system: VSV; type: cell-based, vesicular stomatitis virus
[4] = test system: HIV NL4-3; type: cell-based, human-immunodeficiency virus
[5] = test system: NL4-3-GFP; type: cell-based, human-immunodeficiency virus
[6] = test system: HEK293T
[7] = test system: VSV-GFP; type: cell-based, vesicular stomatitis virus
[8] = test system: Nipah fusion (F) and attachment (G) proteins; type: cell-based, Nipah virus
[9] = test system: pseudotyped HIV-IIIB; type: cell-based, human-immunodeficiency virus
[10] = test system: Nipah virus (Bangladesh strain); type: cell-based
[11] = test system: VSVΔG-Luc/G pseudovirus; type: cell-based, vesicular stomatitis virus
[12] = test system: Ebola Zaire-GFP (EBOV); type: cell-based, Ebola virus
[13] = test system: VSV-G/BlaM; type: cell-based, vesicular stomatitis virus
[14] = test system: adenovirus-GFP; type: cell-based
[15] = test system: replication-competent VSV; type: cell-based, vesicular stomatitis virus
[16] = test system: RVFV (MP12 vaccine strain); type: cell-based, Rift Valley Fever Virus
[17] = test system: VSV-GFP; experiment: microbe, parasite or virus in culture; type: cell-based, vesicular stomatitis virus
[18] = test system: Rift Valley Fever Virus ZH501 (RVFV); type: cell-based
[19] = test system: HIV NL4-R3A; experiment: HIV infection in DKO-hu humanized mice; type: in vivo, HIV-1
[20] = test system: Russian Spring-Summer Encephalitis Virus (RSSEV); type: cell-based

c1cc(CN2CCCNCCNCCCNCC2)ccc1CN1CCCNCCNCCCNCC1 [AMD3100, reference compound]
NL4-3/Bla entry [1]: abrogated

Cc1cn([C@H]2C[C@H](N=[N+]=[N-])[C@@H](CO)O2)c(=O)[nH]c1=O [AZT, reference compound]
inhibition of luciferase expression from single round infection [2]: ~70%

CN(C)CCCN1c2ccccc2Sc2ccc(Cl)cc21 [CPZ, reference compound]
VSV binding (VSV genomic RNA) [3]: did not inhibit binding significantly

CC(C)CC[C@H](O)[C@@H](C)[C@H]1CC[C@H]2[C@@H]3CC=C4C[C@@H](O)CC[C@]4(C)[C@H]3CC[C@]12C [22S-HC, 22-(S)-hydroxycholesterol, reference compound]
effect on HIV p24 expression [4]: no effect

Cc1c(O)cccc1C(=O)N[C@@H](CSc1ccccc1)[C@H](O)CN1C[C@H]2CCCC[C@H]2C[C@H]1C(=O)NC(C)(C)C [Nelfinavir, reference compound]
inhibition of p24 expression in supernatants [5]: > 50%

C[C@H](CCCC(C)(C)O)[C@H]1CC[C@H]2[C@@H]3CC=C4C[C@@H](O)CC[C@]4(C)[C@H]3CC[C@]12C [25HC, 25-hydroxycholesterol]
LDH in supernatants of cells [6]: did not increase LDH | LDH level [6]: increased | VSV replication [7]: reduced VSV replication | syncytia formation [8]: less syncytia formation | reduction of fusion (nuclei per syncytia) relative to ethanol control ([8]; 2 uM): ~50% | reduction of fusion (nuclei per syncytia) relative to ethanol control ([8]; 10 uM): ~60% | inhibition of lateRT expression [9]: > 99% and ~70% | replication of Nipah, dose dependence [10]: dose-dependent manner | replication of live Nipah (Bangladesh) [10]: inhibited replication | VSV-G mediated infection, addition concurrently or 1 hpi [11]: not significantly inhibited | inhibition of VSVΔG-Luc expression, pre-treatment [11]: greater inhibition | replication of live Ebola (EBOV-Zaire) [12]: inhibited replication | VSV-G/BlaM entry [13]: dose-dependent inhibition | adenovirus coexpressing GFP measured by FACS [14]: not affected | reduction in the amount of VSV produced (viral genome copies by qRT-PCR) [15]: > 80% | infectious titer of viruses from treated cells normalized for viral gRNA ([15]; 2.5 uM): equivalent plaque forming units | replication of RVFV (MP12), dose dependence [16]: dose-dependent manner | decrease in NL4-3/Bla blue-green ratio at endpoint [1]: ~60% | reduction in cells expressing cleaved CCF2-AM by FACS [1]: > 85% | inhibition of p24 expression compared to vehicle [4]: ~80% | VSV binding (VSV genomic RNA) [3]: did not inhibit binding significantly | IC50 ([17]; Vesicular stomatitis virus, HEK-293T, read-out: IC50 of inhibition of VSV-GFP expression by FACs): ~1000 nM | GFP expression from NL4-3-GFP (HIV transcription and translation) [5]: did not suppress GFP expression | HIV p24 expression in supernatants of transfected cells (budding) [5]: did not affect | replication of live RVFV [18]: inhibited replication | reduction of HIV RNA (copies/mL) in serum vs vehicle-treated mice ([19]; 50 mg/kg i.p. 12 h prior to infection and every day, 7 dpi, P<0.0001): > 80% | HIV p24 in CD4 T-cells from spleens ([19]; 50 mg/kg i.p. daily, 14 dpi): significantly lower | HIV-mediated CD4 T-cell depletion in peripheral blood leukocytes ([19]; 50 mg/kg i.p. daily, CD3+ T-cell population, P<0.05): prevented HIV-mediated CD4 T-cell depletion | HIV-mediated CD4 T-cell depletion in the spleen ([19]; 50 mg/kg i.p. daily, P=0.06): less significant | inhibition of luciferase expression from single round infection [2]: > 50% | replication of live RSSEV [20]: inhibited replication

CC(C)CC[C@@H](O)[C@@H](C)[C@H]1CC[C@H]2[C@@H]3CC=C4C[C@@H](O)CC[C@]4(C)[C@H]3CC[C@]12C [22R-HC, 22-(R)-hydroxycholesterol, reference compound]
antiviral effect on VSV-GFP [17]: did not confer antiviral effect
